Among the data in article PMC7071059, “Targeting Receptor Tyrosine Kinase VEGFR-2 in Hepatocellular Cancer: Rational Design, Synthesis and Biological Evaluation of 1,2-Disubstituted Benzimidazoles” (Molecules, 2020) are IC50 and melting point values, retold here.

Structures are written as SMILES. Read-outs that look alike come from different tables or passages of the source. A value given as a limit tells only on which side of the number the result lay.

In series [1] the test system is HepG2 cell line. In words: In vitro cytotoxic activity, Sulfo-Rhodamine-B (SRB) assay. Type of series: cell-based, human. The note with it: read-out: IC50 (μM) on HepG2 Cell Line.
Series [2] relates to HepG2 cell line. Set-up: method as in PMID 28505536. To be noted: earlier 2-furylbenzimidazole, comparison value; cited from earlier work.
For series [3], the target named is VEGFR-2 (Homo sapiens, UniProt P35968). In words: Biochemical kinase assay (Kinase-Glo Plus luminescence).
Method: This assay was carried out using the VEGFR-2 kinase enzyme system or FGFR-1 kinase enzyme system and Kinase-Glo Plus luminescence kinase (Promega) kits according to the manufacturers´ protocols. This assay evaluated the activity of kinase by measuring the amount of ATP remaining in solution after a kinase reaction. The luminescent signal from the assay was related to the quantity of ATP available, which was inversely proportional to the amount of kinase activity. […] Subsequently, serial dilutions were carried out, and 5 µL of the dilution was added to a 50 µL reaction. The enzymatic reactions were performed at 30 °C for 45 minutes. The 50 µL reaction mixture contained 40 mM Tris, pH 7.4, 10 mM MgCl2, 0.1 mg/mL BSA, 1 mM DTT, 0.2 mg/ml Poly (Glu, Tyr) substrate, 10 μM ATP and protein. After the enzymatic reaction, 50 µL of Kinase-Glo Plus Luminescence kinase assay solution was added to each reaction, and the plates were incubated for 15 minutes at room temperature. The luminescence signal was measured using a Tecan–spark multimode microplate reader. The difference between luminescence intensities in the absence of Kinase (Lut) and in the presence of Kinase (Luc) was defined as 100% activity (Lut − Luc). Using a luminescence signal (Lu) in the presence of the compound, % activity was calculated as: % activity = {(Lut − Lu)/(Lut − Luc)}×100%, where Lu = the luminescence intensity in the presence of the compound.
Where [4] appears, read: Homo sapiens, HepG2, 48 h, SRB assay, 48 h, mean of three independent experiments.
The mark [5] stands for this setting: SRB assay, 48 h, mean of three independent experiments.

Sequence of VEGFR-2 (P35968 20-1356): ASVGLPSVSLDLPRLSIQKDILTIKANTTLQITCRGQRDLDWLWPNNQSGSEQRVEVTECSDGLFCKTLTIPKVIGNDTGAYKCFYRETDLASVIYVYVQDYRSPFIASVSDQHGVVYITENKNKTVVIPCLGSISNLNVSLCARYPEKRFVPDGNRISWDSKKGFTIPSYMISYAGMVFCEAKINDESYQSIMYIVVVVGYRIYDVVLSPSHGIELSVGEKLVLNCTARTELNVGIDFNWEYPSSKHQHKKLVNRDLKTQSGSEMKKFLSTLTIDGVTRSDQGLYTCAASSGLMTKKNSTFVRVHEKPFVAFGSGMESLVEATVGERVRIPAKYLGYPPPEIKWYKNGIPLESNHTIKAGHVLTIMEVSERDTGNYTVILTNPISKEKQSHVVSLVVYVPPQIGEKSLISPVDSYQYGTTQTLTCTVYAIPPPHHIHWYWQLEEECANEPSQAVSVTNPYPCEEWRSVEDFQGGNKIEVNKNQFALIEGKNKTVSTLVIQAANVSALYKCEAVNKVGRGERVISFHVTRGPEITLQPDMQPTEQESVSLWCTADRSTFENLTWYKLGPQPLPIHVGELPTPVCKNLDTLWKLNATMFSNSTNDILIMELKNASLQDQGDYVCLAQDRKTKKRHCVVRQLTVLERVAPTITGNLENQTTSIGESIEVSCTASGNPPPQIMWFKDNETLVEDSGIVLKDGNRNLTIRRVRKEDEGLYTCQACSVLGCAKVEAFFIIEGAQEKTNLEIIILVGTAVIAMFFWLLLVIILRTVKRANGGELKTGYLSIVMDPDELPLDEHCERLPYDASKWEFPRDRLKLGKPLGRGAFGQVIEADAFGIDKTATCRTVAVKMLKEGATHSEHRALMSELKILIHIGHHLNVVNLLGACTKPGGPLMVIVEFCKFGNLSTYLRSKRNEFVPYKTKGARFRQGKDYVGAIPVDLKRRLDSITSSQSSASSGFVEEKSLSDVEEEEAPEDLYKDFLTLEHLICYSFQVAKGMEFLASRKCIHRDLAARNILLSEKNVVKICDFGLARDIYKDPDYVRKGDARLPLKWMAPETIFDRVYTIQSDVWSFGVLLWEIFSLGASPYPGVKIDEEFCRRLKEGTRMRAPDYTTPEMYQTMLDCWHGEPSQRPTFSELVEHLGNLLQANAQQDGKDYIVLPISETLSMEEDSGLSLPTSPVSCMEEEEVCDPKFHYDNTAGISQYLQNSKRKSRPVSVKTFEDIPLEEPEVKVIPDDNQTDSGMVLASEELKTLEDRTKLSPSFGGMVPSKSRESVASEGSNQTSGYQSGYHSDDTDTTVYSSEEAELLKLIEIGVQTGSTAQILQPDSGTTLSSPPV

Consider `CNC(=O)c1cc(Oc2ccc(NC(=O)Nc3ccc(Cl)c(C(F)(F)F)c3)cc2)ccn1` [Sorafenib (I), sorafenib, reference compound], for which the IC50 in series [1] (Homo sapiens, HepG2, 48 h) turned out to be 11 µM.

With `C/C(=N\NC(=O)Cn1c(C(C)C)nc2ccccc21)c1ccccc1C` [Compound 14b, (E)-2-(2-Isopropyl-1H-benzo[d]imidazol-1-yl)-N′-(1-(o-tolyl)ethylidene)acetohydrazide], the melting point was in the range of 238 to 240 °C. For the same compound, the IC50 in series [1] (setting [4]) was found to be 26.2 µM.

The compound `C/C(=N\NC(=O)Cn1c(C(C)C)nc2ccccc21)c1ccc(Br)cc1` [Compound 14c, (E)-N′-(1-(4-Bromophenyl)ethylidene)-2-(2-isopropyl-1H-benzo[d]imidazol-1-yl)acetohydrazide] came in with a melting point of 215 to 217 °C. Moreover, the IC50 in series [1] (setting [4]) is 112 µM.

Take `C/C(=N\NC(=O)Cn1c(C(C)C)nc2ccccc21)c1ccc(Br)c([N+](=O)[O-])c1` [Compound 14d, (E)-N′-(1-(4-Bromo-3-nitrophenyl)ethylidene)-2-(2-isopropyl-1H-benzo[d]imidazol-1-yl)acetohydrazide]: the melting point lay in the range of 231 to 233 °C. Besides, the half-maximal inhibitory concentration (IC50) in series [1] (setting [4]) was found to be 62 µM.

With `COC(=O)Cn1c(-c2ccc(C)o2)nc2ccccc21` [Compound 8b, Methyl 2-(2-(5-methylfuran-2-yl)-1H-benzo[d]imidazol-1-yl)acetate], the IC50 in series [1] (setting [4]) is > 150 µM.

Turning to `CC(C)c1nc2ccccc2n1CC(=O)N/N=C/c1ccc(N(C)C)cc1` [Compound 13e, (E)-N′-(4-(Dimethylamino)benzylidene)-2-(2-isopropyl-1H-benzo[d]imidazol-1-yl)acetohydrazide], the melting point lay in the range of 225 to 227 °C. In series [1] (setting [4]), the IC50 was 87 µM.

As for `COC(=O)COc1ccc(/C=N/NC(=O)Cn2c(C(C)C)nc3ccccc32)cc1OC` [Compound 19a, Methyl-(E)-2-(4-((2-(2-(2-isopropyl-1H-benzo[d]imidazol-1-yl)acetyl)hydrazono)methyl)-2-methoxyphenoxy)acetate], the melting point fell in the range of 175 to 177 °C. The IC50 in series [1] (setting [4]) was 109 µM.

Compound `CC(C)c1nc2ccccc2n1CC(=O)N/N=C/c1ccccc1Cl` [Compound 13a, (E)-N′-(2-Chlorobenzylidene)-2-(2-isopropyl-1H-benzo[d]imidazol-1-yl)acetohydrazide] had a melting point of 211 to 213 °C. For the same compound, the IC50 in series [1] (setting [4]) was found to be 158 µM.

Regarding `CCOC(=O)COc1ccc(/C=N/NC(=O)Cn2c(-c3ccc(C)o3)nc3ccccc32)cc1OC` [Compound 19d, Ethyl-(E)-2-(2-methoxy-4-((2-(2-(2-(5-methylfuran-2-yl)-1H-benzo[d]imidazol-1-yl)acetyl)hydrazono)methyl)phenoxy)acetate], the melting point fell in the range of 136 to 138 °C. The IC50 in series [1] (setting [4]) was found to be 114 µM.

The compound `CC(C)c1nc2ccccc2n1CC(=O)O` [Compound 9a, 2-(2-Isopropyl-1H-benzo[d]imidazol-1-yl)acetic acid] yielded a melting point of 238 to 240 °C. Moreover, the IC50 in series [1] (setting [4]) is 32.5 µM.

With `Cc1ccc(-c2nc3ccccc3n2CC(=O)N/N=C/c2ccccc2Cl)o1` [IX], in series [2], the concentration for half-maximal inhibition (IC50) was 22.6 µM.

On to `CC(C)c1nc2ccccc2n1CC(=O)N/N=C/c1ccc(O)cc1` [Compound 13c, (E)-N′-(4-Hydroxybenzylidene)-2-(2-isopropyl-1H-benzo[d]imidazol-1-yl)acetohydrazide], for which the melting point lay within 296 to 298 °C. Moreover, in series [1] (setting [4]), the IC50 came to 140 µM.

`CC(C)c1nc2ccccc2n1CC(=O)NN` [Compound 10a, 2-(2-Isopropyl-1H-benzo[d]imidazol-1-yl)acetohydrazide] had a melting point of 243 to 245 °C. Moreover, the half-inhibitory concentration (IC50) in series [1] (setting [4]) stood at 301 µM.

`CC(C)c1nc2ccccc2n1CC(=O)c1ccc(C#N)cc1` [Compound 6, 4-(2-(2-Isopropyl-1H-benzo[d]imidazol-1-yl)acetyl)benzonitrile] displayed a melting point of 209 to 211 °C. The IC50 in series [1] (setting [4]) was determined as 13.5 µM.

Compound `COc1ccc(OC)c(/C=N/NC(=O)Cn2c(C(C)C)nc3ccccc32)c1` [Compound 13f] returned a melting point of 202 to 204 °C. For the same compound, in series [3], the IC50 was 0.4 ± 0.01 µM. Also, in series [1] (setting [4]), the IC50 lay in the range of 11.9 to 15.6 µM. In addition, the 50% inhibitory concentration (IC50) in series [1] (setting [5]) worked out at 16.7 µM.

As to `CCOC(=O)COc1ccc(/C=N/NC(=O)Cn2c(C(C)C)nc3ccccc32)cc1OC` [Compound 19c, Ethyl-(E)-2-(4-((2-(2-(2-isopropyl-1H-benzo[d]imidazol-1-yl)acetyl)hydrazono)methyl)-2-methoxyphenoxy)acetate], the melting point lay in the range of 93 to 95 °C. For the same compound, in series [1] (setting [4]), the IC50 worked out at 133 µM.

Compound `COc1ccc(NC(=S)NNC(=O)Cn2c(C(C)C)nc3ccccc32)cc1` [Compound 24b, 2-(2-(2-Isopropyl-1H-benzo[d]imidazol-1-yl)acetyl)-N-(4-methoxyphenyl)hydrazine-1-carbothioamide] had a melting point of 232 to 234 °C. Also, in series [1] (setting [4]), the IC50 was determined as 15.9 µM.

As to `COC(=O)COc1ccc(/C=N/NC(=O)Cn2c(-c3ccc(C)o3)nc3ccccc32)cc1OC` [Compound 19b, Methyl-(E)-2-(2-methoxy-4-((2-(2-(2-(5-methylfuran-2-yl)-1H-benzo[d]imidazol-1-yl)acetyl)hydrazono)methyl)phenoxy)acetate], the melting point lay within 150 to 152 °C. Also, the IC50 in series [1] (setting [4]) came to 71.7 µM.

For the compound `COc1cc(C=O)ccc1OCCOc1ccc(/C=N/NC(=O)Cn2c(C(C)C)nc3ccccc32)cc1OC` [Compound 22a, (E)-N′-(4-(2-(4-Formyl-2-methoxyphenoxy)ethoxy)-3-methoxybenzylidene)-2-(2-isopropyl-1H-benzo[d]imidazol-1-yl)acetohydrazide], the melting point is 218 to 220 °C. Moreover, the concentration for half-maximal inhibition (IC50) in series [1] (setting [4]) was > 100 µM. Further, the IC50 in series [1] (setting [5]) is 123 µM.

Regarding `CCOC(=O)Cn1c(C(C)C)nc2ccccc21` [Compound 8c, Ethyl 2-(2-isopropyl-1H-benzo[d]imidazol-1-yl)acetate], the melting point was in the range of 103 to 105 °C. For the same compound, the IC50 in series [1] (setting [4]) is > 200 µM.

Compound `CC(C)c1nc2ccccc2[nH]1` [Compound 4a, 2-Isopropyl-1H-benzo[d]imidazole] registered a melting point of 233 to 235 °C. Further, in series [1] (setting [4]), the half-inhibitory concentration (IC50) is > 200 µM.

Take `Cc1ccc(-c2nc3ccccc3[nH]2)o1` [Compound 4b, 2-(5-Methylfuran-2-yl)-1H-benzo[d]imidazole]: the IC50 in series [1] (setting [4]) was 103 µM.

In turn, `COC(=O)Cn1c(C(C)C)nc2ccccc21` [Compound 8a, Methyl 2-(2-isopropyl-1H-benzo[d]imidazol-1-yl)acetate] had a melting point of 93 to 95 °C. In series [1] (setting [4]), the half-maximal inhibitory concentration (IC50) is > 200 µM.

In the case of `CCOC(=O)Cn1c(-c2ccc(C)o2)nc2ccccc21` [Compound 8d], the concentration for half-maximal inhibition (IC50) in series [1] (setting [4]) is > 150 µM.

As for `COc1cc(C=O)ccc1OCCOc1ccc(/C=N/NC(=O)Cn2c(-c3ccc(C)o3)nc3ccccc32)cc1OC` [Compound 22b, (E)-N′-(4-(2-(4-Formyl-2-methoxyphenoxy)ethoxy)-3-methoxybenzylidene)-2-(2-(5-methylfuran-2-yl)-1H-benzo[d]imidazol-1-yl)acetohydrazide], the melting point lay within 203 to 205 °C. The IC50 in series [1] (setting [4]) was > 100 µM. The half-inhibitory concentration (IC50) in series [1] (setting [5]) came out at 107 µM.

In the case of `COc1cc(/C=N/NC(=O)Cn2c(C(C)C)nc3ccccc32)ccc1O` [Compound 13g, (E)-N′-(4-Hydroxy-3-methoxybenzylidene)-2-(2-isopropyl-1H-benzo[d]imidazol-1-yl)acetohydrazide], the melting point was 165 to 167 °C. In addition, the half-inhibitory concentration (IC50) in series [1] (setting [4]) was found to be 13.9 µM.

As to `COc1ccc(/C=N/NC(=O)Cn2c(C(C)C)nc3ccccc32)cc1` [Compound 13d, (E)-2-(2-Isopropyl-1H-benzo[d]imidazol-1-yl)-N′-(4-methoxybenzylidene)acetohydrazide], the melting point fell in the range of 190 to 192 °C. Moreover, in series [3], the IC50 was 0.09 ± 0.002 µM. In addition, in series [1] (setting [4]), the half-maximal inhibitory concentration (IC50) stood at 11.9 µM.

`CC(C)c1nc2ccccc2n1CC(=O)N/N=C/c1cccc(O)c1` [Compound 13b, (E)-N′-(3-Hydroxybenzylidene)-2-(2-isopropyl-1H-benzo[d]imidazol-1-yl)acetohydrazide] came in with a melting point of 249 to 251 °C. Also, in series [1] (setting [4]), the half-inhibitory concentration (IC50) was found to be 137 µM.

For `Cc1ccc(S(=O)(=O)NC(=O)NNC(=O)Cn2c(C(C)C)nc3ccccc32)cc1` [Compound 24a, 2-(2-(2-Isopropyl-1H-benzo[d]imidazol-1-yl)acetyl)-N-tosylhydrazine-1-carboxamide], the IC50 in series [1] (setting [4]) amounted to 80.7 µM.

The compound `COc1ccc(NC(=S)NNC(=O)Cn2c(-c3ccc(C)o3)nc3ccccc32)cc1` [Compound 24c, N-(4-Methoxyphenyl)-2-(2-(2-(5-methylfuran-2-yl)-1H-benzo[d]imidazol-1-yl)acetyl)hydrazine-1-carbothioamide] registered a melting point of 189 to 191 °C. Further, the 50% inhibitory concentration (IC50) in series [1] (setting [4]) came out at 8.73 µM.

With `Cc1ccc(/C=N/NC(=O)Cn2c(C(C)C)nc3ccccc32)o1` [Compound 13h, (E)-2-(2-Isopropyl-1H-benzo[d]imidazol-1-yl)-N′-((5-methylfuran-2-yl)methylene)acetohydrazide], the half-inhibitory concentration (IC50) in series [1] (setting [4]) amounted to 59.9 µM.
